Test results as given in patent publication US20220133738A1, “GENOTYPE AND DOSE-DEPENDENT RESPONSE TO AN ASBTI IN PATIENTS WITH BILE SALT EXPORT PUMP DEFICIENCY” (MIRUM PHARMACEUTICALS, INC., priority 2019, published 2022).
Values joined by “and” are separate entries in the source; they are usually repeats but may differ in a detail not shown here. Identical values can stand only once.

Key:
[1] = tested on: children with Alagille syndrome (ALGS); assay: ICONIC phase 2b randomized placebo-controlled drug-withdrawal study with long-term extension of maralixibat in Alagille syndrome
Experimental: Children aged 1-18 years with a diagnosis of ALGS and evidence of cholestasis were eligible to enroll in the ICONIC clinical study, see Tables 12-14. During a long-term extension, participants with sBA levels above the upper limit of normal and/or an ITCHRO(OBS) score >1.5 were eligible for the 400 μg/kg BID dose (all participants received the 400 μg/kg BID dose). Inclusion criteria for the ICONIC study included having cholestasis, which was defined as at least one of 1) sBA concentration (total sBA) >3× the upper limit of normal, 2) serum conjugated bilirubin concentration >1 mg/dL, 3) fat-soluble vitamin deficiency not otherwise explained, 4) serum gamma-glutamyl transferase concentration >3× the upper limit of normal, and 3) intractable pruritus explainable only by liver disease. Inclusion criteria also included having significant pruritus, which was defined as an average daily score of >2 on the ITCHRO(OBS) scale for 2 consecutive weeks (0=no pruritus; 4=most severe pruritus). Exclusion criteria included having surgically disrupted enterohepatic circulation, a liver transplant, decompensated cirrhosis, or having any liver disease other than ALGS.
sBA responders were defined as those patients achieving ≥50% reduction from baseline in sBA at week 12 or 18. ITCHRO responders were defined as those patients achieving at least a 1-point reduction from Baseline in weekly morning ITCHRO(OBS) score at week 12 or 18.
In the open label extension, the effect of higher doses was explored by increasing dosage to a maximum of 400 μg/kg BID in eligible participants.
Efficacy assessments were based on changes from baseline in sBA concentration, weekly average ITCHRO(OBS) scores (0, none; 4, most severe), CSS score (0, none; 4 most severe), and Clinician Xanthoma Scale score (0, none; 4, disabling). […] During the long-term extension, efficacy assessments were conducted every 12 weeks.
sBA were measured using a fully validated liquid chromatography-electrospray ionization-mass electrospray (LC-ESI-MS) method using stable-isotope dilution analysis to measure serum concentrations of principal bile acids (cholic, chenodeoxycholic, ursodeoxycholic, deoxycholic acid, lithocholic, and their corresponding glycine and taurine conjugates). […] Calibration standards of individual bile acids were in the range of 50-25,000 ng/mL and Quality Control samples were prepared at concentrations of 100, 500, 1000, 2500, and 20000 ng/mL. The intra- and inter-assay imprecision of the method for individual bile acids measured was within the accepted GLP quality assurance guidelines of <15% coefficient of variance for these QC samples. The lower limit of quantification of the assay was set at 100 ng/mL and the imprecision at this concentration was <20%. The limit of detection of the assay was 5 ng/mL. Total sBA is represented by the sum of the individual bile acid species measured.

[2] = tested on: children with progressive familial intrahepatic cholestasis (PFIC); assay: INDIGO phase 2 open-label efficacy and safety study of maralixibat in children with PFIC; type: in vivo, human
[3] = tested on: children with progressive familial intrahepatic cholestasis (PFIC); assay: as above; type: in vivo, human; remark: listed apart in the source
Source text: The HRQoL used was the […] QUALITY OF LIFE INVENTORY (PedsQL).

[4] = tested on: adults with primary sclerosing cholangitis (PSC); assay: CAMEO 14-week single-arm open-label phase 2a study of maralixibat in primary sclerosing cholangitis; type: in vivo, human
Experimental: Participants were adults aged 18-80 years with a diagnosis of PSC. PSC diagnosis included a documented history of alkaline phosphatase (ALP) levels greater than 1.5 times above the upper limit of normal, biliary obstruction, and histological findings consistent with PSC diagnosis (if previously biopsied). The study enrolled 27 adults.
Efficacy was assessed by measuring at baseline and throughout the study sBA concentration, serum 7αC4 concentration (a marker of de novo bile acid synthesis), serum aoutotaxin concentration, LDL-C concentration, serum total cholesterol concentration, serum liver enzyme concentrations, and pruritus severity. Pruritus severity was determined by calculating Adult Itch Reported Outcome (ITCHRO) weekly sum scores and average daily scores (mean score over a 7-day period). Participants self-reported the ITCHRO daily on a scale 0-10 (0=no pruritus; 10=most severe pruritus).
Outcomes were assessed in the overall study population and in subgroups of participants (A) with any pruritus at baseline or (B) with an ITCHRO average daily score ≥4 out of 10 at baseline. Efficacy endpoints were based on change from baseline to week 14 or early termination (ET) and were analyzed using paired t-tests or Wilcoxon signed rank tests.

[5] = individual participants A-F with ITCHRO daily score ≥4 at baseline, one line per participant
[6] = participants with ITCHRO daily score ≥4 at baseline

CCCCC1(CCCC)CS(=O)(=O)c2ccc(N(C)C)cc2[C@@H](c2ccc(OCc3ccc(C[N+]45CCN(CC4)CC5)cc3)cc2)[C@H]1O [maralixibat]
ItchRO(Obs) Weekly Morning Average Score, Week 48 Average Score ([1]; sBA ≥90% Reduction): 0.00
participants meeting sBA Response Definition, Week 48 (N = 28), % ([1]; sBA ≥90% Reduction): (3.6%)
ItchRO(Obs) Weekly Morning Average Score, Average Change from Baseline ([1]; sBA ≥90% Reduction, week 48): −2.71
CSS final average score ([1]; week 48, all participants): about 1.5
multi-parameter responders among mild PFIC 2 patients ([2]; 280 μg/kg QD): 1 of 7
moderate PFIC 2 patients responsive only at the higher dose (high-dose responder) ([2]; 280 μg/kg twice daily): 1 of 12
responders among moderate PFIC 2 patients ([2]; 280 μg/kg/day by week 48): 5 of 12
Multi-parameter Responders (%) ([2]; Mild PFIC 2 (N = 7)): (14.3%)
Multi-parameter Responders (%) ([2]; Moderate PFIC 2 (N = 12)): (50%)
Multi-parameter Responders (%) ([2]; Truncating BSEP (N = 6)): (0%)
multi-parameter response ([2]; all PFIC 1 patients and all patients harboring a truncating ABCB11 mutation): not multi-parameter responders
increase in C4 levels relative to baseline ([2]; all low-dose responders (280 μg/kg/day), within 13 weeks of first administration): at least 2.5 fold
serum ALT, AST, and bilirubin concentrations over time ([2]; all low-dose responders, within 2-6 months of first administration): normalized or only mildly elevated
height Z-score ([2]; high dose responder, following treatment response on sBA): increase in height Z-score
7αC4:sBA ratio ([2]; high-dose responder, upon administration of 560 μg/kg/day): 1770 times baseline
cholestasis markers after dose increase ([2]; low-dose responder losing response in long-term extension, raised to 280 μg/kg BID at 640-730 days): sBA concentration decreased, severity of pruritus decreased, serum 7αC4 concentration increased, and 7αC4:sBA ratio increased
7αC4 concentrations at 48 weeks relative to baseline ([2]; low-dose responders (range, 3-43)): 14 × baseline
growth (height Z-score change from baseline) ([2]; low-dose responders, FIG. 4): improved growth relative to baseline
7αC4:sBA ratio, mean change from baseline at week 48 ([2]; non-responders (range, 0.43-12)): 1.9 times baseline ratio
duration of maintained response ([2]; responders in the INDIGO study): for over a year and for up to or beyond 5 years
Response: reduction in BAs ([2]; subject 080051-L, mild PFIC 2): >70%
response at the higher dose in prior non-responders ([2]; three non-truncating PFIC 2 patients without response at 280 μg/kg/day given 560 μg/kg/day): one (mentioned above) responded at the higher dose
ALT, change from baseline to week 48, mean ([2]; week 48): −12 UI/L
C4, change from baseline to week 48, mean ([2]; week 48): +6.0 ng/mL
ItchRO(Obs) score, change from baseline to week 48, mean ([2]; week 48): −1.0
Total bilirubin, change from baseline to week 48, mean ([2]; week 48): +0.8 mg/dL
sBA, change from baseline to week 48, mean ([2]; week 48): -32 µmol/L
Multi-parameter Responders (n/N) ([3]; Mild PFIC 2 (N = 7)): 1/7
Multi-parameter Responders (n/N) ([3]; Moderate PFIC 2 (N = 12)): 6/12
Multi-parameter Responders (%) ([3]; Non-truncating BSEP (N = 19)): (36.8%)
Multi-parameter Responders (n/N) ([3]; Non-truncating BSEP (N = 19), response = >70% reduction or normalization in sBA and >1.0 reduction or <1.0 ITCHRO(OBS)): 7/19
Multi-parameter Responders (n/N) ([3]; Truncating BSEP (N = 6)): 0/6
7αC4:sBA ratio ([3]; high-dose responder, prior to administration of 560 μg/kg/day): 12 times baseline
Response (observed response) ([3]; individual PFIC 2 participants, one line per Subject ID of Table 3, (No reponse [sic] / Rapid complete response / Good response), max dose 280 or 560 μg/kg/day): Rapid (4×) and No (18×) and Good
7αC4:sBA ratio, mean change from baseline at week 48 ([3]; low-dose responders (range, 5-3982)): 1388 times baseline ratio
7αC4 concentrations at 48 weeks relative to baseline ([3]; non-responders (range, 0.5-6)): 1.8 × baseline
responders in long-term extension ([3]; patients having an ABCB11 gene with a truncating mutation): no patients
patients with ≥1.0 pt. reduction in ITCHRO(OBS) score ([3]; patients with non-truncating BSEP mutations, FIG. 6): 10/19
sBA levels Normalized (±≤8.5 μmol/L), n ([3]; responders (n = 6) by week 48): 4
Response ([3]; subject 016054, moderate PFIC 2, wrapped cell r43-r46 reads 'No response until 560 reached'): No
PedsQL total score, change from baseline to week 48, mean ([3]; week 48): +8.2
tolerability ([4]; adults with PSC, 14 weeks): well tolerated
participants with worsening of pruritus by >1 point ([4]; baseline to week 14): No participants
Changes in serum total bilirubin, alanine aminotransferase, aspartate aminotransferase, and alkaline phosphatase concentrations ([4]; baseline to week 14/ET): not statistically significant
ItchRO average daily score (0-10 scale), Change from baseline to week 14/ET [4, 5]: −4.6 and −1.7 and −3.7 (2×) and −9.1 and −4.7
ItchRO average daily score (0-10 scale), Week 14/ET [4, 5]: 1.3 and 5.1 and 3.1 and 2.3 and 0 (2×)
Mean conjugated bilirubin levels, increase ([4]; overall population): 0.19 mg/dL
total cholesterol, mean change ([4]; overall population): -21.2 mg/dL
ITCHRO weekly sum scores, decrease from baseline ([4]; overall population, baseline to week 14/ET, 10 mg/day maintenance): 51%
serum LCL-C concentration, change from baseline ([4]; overall population, SD 17.6): -16.3 mg/dL
serum autotaxin concentration, change from baseline ([4]; overall population, SD 319): -148 ng/mL
Mean levels of 7αC4, increase from baseline ([4]; overall, week 14/ET): 130%
sBA levels, decrease from baseline ([4]; overall, week 14/ET): 38%
7αC4, mean increase from baseline ([4]; overall, week 14/ET, SD 13.6): 11.1 ng/mL
sBA levels, mean change from baseline ([4]; overall, week 14/ET, SD 31.4): -14.8 µmol/L
Mean levels of 7αC4, increase from baseline [4, 6]: 107%
sBA levels, decrease from baseline [4, 6]: 45%
total cholesterol, mean change [4, 6]: -32.0 mg/dL
ITCHRO weekly sum scores, decrease from baseline ([4]; participants with ITCHRO daily score ≥4 out of 10 at baseline (n=6), week 14/ET): 70%
ITCHRO weekly sum scores, decrease from baseline ([4]; participants with any pruritus at baseline (n=18), week 14/ET): 53%
participants with ITCHRO average daily score improved by >1 point ([4]; week 14/ET): 29.6%
participants with ITCHRO average daily score improved by >3 points ([4]; week 14/ET): 22.2%
